Measured values as given in ChEMBL document CHEMBL3352663, “Inhibition of group IVA cytosolic phospholipase A2 by thiazolyl ketones in vitro, ex vivo, and in vivo” (J Med Chem, 2014).

Test system: GVIA iPLA2 (Homo sapiens)
Assay: Inhibition of human recombinant GVIA iPLA2 using 400 uM Triton X-100/98.3 uM PAPC/1.7 uM 14C-labeled PAPC substrate mixedmicelles at 1 uM

O=C(COc1ccc(-c2ccccc2)cc1)c1nccs1
inhibition: 23%

O=C(COc1ccc(F)cc1)c1nccs1
inhibition: 5%

CCCCCCCCCCCCOCC(=O)c1nc(CC(=O)OCC)cs1
inhibition: 91%

CCCCCCCCc1ccc(OCC(=O)c2nc(CC(=O)OCC)cs2)cc1
inhibition: 76%

O=C(COc1ccccc1)c1nccs1
inhibition: 13%

CCCCCCCCc1ccc(OCC(=O)c2nc3ccccc3s2)cc1
inhibition: 77%

CCCCCCCCCCCCOCC(=O)c1nc(C(=O)OCC)cs1
inhibition: 92%

CCCCCCCCc1ccc(OCC(=O)c2nccs2)cc1
inhibition: 67%
